Columns and labels:
[1] = Metabolite characterization by LC/MS/MS in human plasma, urine, and feces; settings: for Matrix (in which the metabolite was found): human plasma, urine, feces, LC/MS/MS
Experimental: The remaining eluate stream of 0.16 mL/min from the HPLC runs was diverted to the inlet of the mass spectrometer. The samples were analyzed using a heated electrospray ionization probe. Full-scan positive ion MS data were collected using Finnigan Exactive (MS^1) or Q-Exactive (MS^1 and MS^2) mass spectrometers (Thermo Fisher Scientific Inc.) Exact conditions are described in the Online Resource 3.
Finnigan Exactive or Q-Exactive mass spectrometers (Thermo Fisher Scientific Inc., San Jose, CA) were used to collect full scan MS^1 and MS^2 data.

[2] = Metabolite profiling of plasma (HPLC-radiochromatography); format: in vivo, human; settings: % of TRA
Experimental: For each subject, a 0–24 h pooled plasma sample was prepared according to the scheme outlined in the literature. In addition, several pooled plasma samples across all subjects were prepared at these time points: 5, 10, 12, […], and 48 h, and every 24 h thereafter until 240 h.
All pooled 0–24, 5, 10, 12, and 24 h plasma samples were processed as follows. […] The samples were vortexed for 30 min and centrifuged at 4500g at 4 °C for 6 min. The supernatants were transferred into new polypropylene tubes and kept on ice. The resulting plasma protein pellets were extracted twice to ensure good recovery and the extracts were combined. The combined extracts were loaded onto Ostro sample preparation plates (Waters Corporation, Milford, MA, USA), dried, eluted with 0.2 mL of cold acetonitrile, and all eluates were collected and evaporated under nitrogen (TurboVap LV; Caliper Life Sciences, Hopkinton, MA, USA). The dry residues were reconstituted in 0.1 mL of methanol, and a 0.005-mL aliquot was removed for determination of radioactivity. The remainder of the supernatants were transferred to high-performance liquid chromatography (HPLC) vials and stored at −80 °C until analysis.
Pooled post-24-h plasma samples were extracted using a slightly modified procedure. […] Appropriate volumes of formic acid were added to achieve a final concentration of 1%. Then, the samples were warmed to 37 °C and loaded to preconditioned Oasis HLB cartridges (Waters Corporation, Milford, MA, USA). These columns were then washed with water, dried under vacuum, and eluted with methanol. The eluates were collected and evaporated under nitrogen. The dry residues were reconstituted in 0.1 mL of methanol, and a 0.005-mL aliquot was removed for determination of radioactivity. The remainder of the supernatants were transferred to HPLC vials and stored at −80 °C until analysis.
(§1) A Finnigan Surveyor HPLC system (Thermo Fisher Scientific Inc., San Jose, CA, USA), consisting of an LC pump plus an autosampler and a UV–Vis plus detector, was used mostly for profiling (except the post-24-h plasma samples, which were analyzed using a Dionex HPLC system). A Phenomenex® Gemini® C18, 5-μm, 3.0 × 100-mm column (Phenomenex Inc., Torrance, CA, USA) was used along with a C-12 guard column (4 × 2 mm). LC conditions were as follows: solvent A was 10 mM ammonium bicarbonate in water (pH 10.0) and solvent B was 100% methanol and the flow rate was 0.8 mL/min. The following gradient was employed (B%): 0–5 min (20%), 32 min (42%), 33 min (60%), 55 min (70%), 56–60 min (95%), and 62–70 min (20%).
(§2) Reconstituted solvent extracts (0.050–0.10 mL) of plasma, urine, or feces were injected onto the HPLC column. The post-column eluate was split after UV detection into two streams (0.64 and 0.16 mL/min). The 0.64-mL stream was diverted to a fraction collector (Gilson FX 204; Gilson Medical Electronics, Middleton, WI, USA) to be collected in 96-well plates at 0.16 min/well (ScintiPlates; PerkinElmer Life Sciences, Shelton, CT, USA), and the 0.16-mL stream was directed to the mass spectrometer. The solvent in the 96-well plates was removed at 40 °C using a Genevac evaporator (Genevac, Inc., Stone Ridge, NY, USA).
(§3) The radioactivity counts per minute (CPM) in each well was determined using a MicroBeta scintillation counter (PerkinElmer Life and Analytical Sciences). The resulting CPM vs. time data were processed using Excel (Microsoft Corporation, Seattle, WA, USA). The CPM in each well was background-subtracted (using the average CPM values of the blank region of the HPLC run). Radiochromatographic profiles were obtained by plotting the resulting net CPM values against time after injection. Radioactive peaks in the chromatographic profiles were identified, and the radioactivity in each peak was summed and reported as a percentage of TRA in the HPLC run.

[3] = Plasma pharmacokinetics of TRA, ponatinib and metabolites after a single oral 45-mg [14C]ponatinib dose
Experimental: The subject release criterion was defined as follows: the combined urine and fecal radioactivity excretion for two consecutive days should fall below 1% of the dose administered.
Detailed procedures on sample collection, storage, and shipment are described in Online Resource 1. […] Fecal homogenates were prepared by adding water (four times the feces weight) and homogenizing.
(§4) TRA analysis was carried out at ABC Laboratories. The radioactivity in plasma (duplicate per time point) and urine samples (triplicate per time point) was quantitated by direct counting in a Beckman LS6000SC or LS6500 liquid scintillation counter (PerkinElmer Life and Analytical Sciences, Boston, MA, USA). Whole blood (duplicate per time point) and fecal homogenate (triplicate per time point) samples were oxidized, and the resultant ^14CO2 was trapped in Carbosorb (Calgon Carbon Corporation, Pittsburgh, PA, USA) in combination with Permafluor, followed by liquid scintillation counting to determine the radioactivity. Individual samples were counted for 5 min for whole blood and fecal matrices, and 10 min for plasma and urine matrices. Predose blood, plasma, urine, and feces samples served as respective control samples to determine and subtract the background radioactivity in the analysis.
M14 was quantitated using a different LC/MS/MS method (Online Resource 2). The pharmacokinetic analysis was carried out using WinNonlin® v6.4 (Pharsight Corp., Mountain View, CA, USA).
Aliquots of 30 µl of calibration standards, quality controls, and incurred plasma samples were transferred into a 96-well plate. Then 150 µl of ice-cold acetonitrile containing 50 ng/ml of AP30376 (d6-AP24600, internal standard) were added. The 96-well plate was vortexed for 10 min and then centrifuged at 4750 rpm for 20 min at 4°C. 100 µl aliquots of the supernatants were transferred into another 96-well plate and the samples were analyzed by liquid chromatography tandem mass spectrometry.

[4] = Metabolite profiling of feces (HPLC-radiochromatography); format: in vivo, human; settings: 0–144 h pool
Experimental: One-gram samples of the fecal homogenates were transferred to 50-mL polypropylene tubes, extracted with 4 mL of methanol, and centrifuged (4500g). The resulting residues were extracted three more times (once with 2 mL of methanol and twice with 1 mL of methanol containing 1% formic acid) and centrifuged. All supernatants were combined and evaporated under nitrogen, and the residue was reconstituted with 0.5 mL of methanol, vortexed, sonicated, and centrifuged. A 0.010-mL aliquot of the supernatant was removed for determination of radioactivity, and the remainder of the supernatant was transferred to an HPLC vial and stored at −80 °C.
as §1, §2, §3

[5] = Excretion and mass balance in urine and feces; format: in vivo, human
Excerpt: Six healthy male volunteers, 25–45 years of age, with a mean body weight of 83.3 kg (range 64.5–94.4) and a mean body mass index of 26.9 kg/m^2 (range 20.2–29.9) participated in the study. […] The subject release criterion was defined as follows: the combined urine and fecal radioactivity excretion for two consecutive days should fall below 1% of the dose administered.
Detailed procedures on sample collection, storage, and shipment are described in Online Resource 1. […] Urine and feces collected from each subject were pooled at predose and every 24 h thereafter. Fecal homogenates were prepared by adding water (four times the feces weight) and homogenizing.
as §4
All urine voided was collected and stored in containers at 5±3 °C until the collection interval was completed. Subjects voided in the morning prior to study drug administration.
Multiple collections of urine during each collection interval from each individual subject were pooled. The urine samples from each collection interval were well mixed, accurately weighed, and assessed for its pH. A 100 ml sample from each collection interval from each subject was aliquoted into a separately labeled container to be sent to ABC Laboratories for radioactivity analysis. An approximately 10 ml sample from each collection interval from each subject on day 8 and each day thereafter was used for TRA analysis at Celerion (Lincoln, NE). All urine samples were kept frozen at −80 ± 15 °C.
Stool collections began approximately 24 h prior to drug administration until the end of the postdose sampling period. The 24 h predose samples were used as control samples for the radioactivity analysis and metabolite profiling. Feces were collected daily (24 h collection periods) until subjects were discharged from the clinical research unit.
All fecal samples were collected in polypropylene containers; toilet paper was collected separately. The weight of each sample was recorded. Multiple collections of feces during each collection interval from each individual subject were pooled. The feces samples were thoroughly homogenized with water (4X the weight of the feces). A 100 g sample was aliquoted into a separately labeled container to be sent to ABC Laboratories for radioactivity analysis. An approximately 10 g sample from each collection interval from each subject on day 8 and each day thereafter was used for TRA analysis at Celerion. All fecal homogenate samples were kept frozen at −80 ± 15 °C.

Row | Structure (SMILES) | Matrix (in which the metabolite was found) [1] | % Distribution in plasma ([2]; 0–24 h pooled plasma) | % Distribution in plasma ([2]; 5 h pooled plasma) | % Distribution in plasma ([2]; 10 h pooled plasma) | % Distribution in plasma ([2]; 12 h pooled plasma) | % Distribution in plasma ([2]; 36 h pooled plasma) | % Distribution in plasma ([2]; 48 h pooled plasma) | % Distribution in plasma ([2]; 72 h pooled plasma) | % Distribution in plasma ([2]; 96 h pooled plasma) | further results
1 | Cc1ccc([14C](=O)Nc2ccc(CN3CCN(C)CC3)c(C(F)(F)F)c2)cc1C#Cc1cnc2cccnn12 [[^14C]ponatinib] |  |  |  |  |  |  |  |  |  | share of total urinary TRA contained in the 0–72-h pool ([5]; 0–72 h): 84%; cumulative recovery in feces during 0–144 h, share of the TRA in feces ([5]; 0–144 h): 91%; dose recovered in feces ([5]; 0–336 h (days 0–14) postdose): 86.6%; dose recovered in urine ([5]; 0–336 h (days 0–14) postdose): 5.4%; total radioactive dose recovered (urine and feces) ([5]; 0–336 h postdose): 92%
2 | CN1CCN(Cc2ccc(N)cc2C(F)(F)F)CC1 [M19, 4-((4-methylpiperazin-1-yl)methyl)-3-(trifluoromethyl)aniline] |  |  |  |  |  |  |  |  |  | detection in human samples (plasma, urine, feces) ([1]; in vivo): not observed in any human samples; detection in human samples (plasma, urine, feces) ([1]; male, human, in vivo): The amide hydrolysis also would result in an aniline metabolite M19 (AP24592). However, this metabolite was not detected in any matrices.
3 | CC(=O)Nc1ccc(CN2CCN(C)CC2)c(C(F)(F)F)c1 [M22] | Trace: P, U, F |  |  |  |  |  |  |  |  | detection in human samples (plasma, urine, feces) ([1]; MS traces): trace levels

The next lines start with results.

Row | Matrix (in which the metabolite was found) [1] | % Distribution in plasma ([2]; 0–24 h pooled plasma) | % Distribution in plasma ([2]; 5 h pooled plasma) | % Distribution in plasma ([2]; 10 h pooled plasma) | % Distribution in plasma ([2]; 12 h pooled plasma) | Structure (SMILES) | % Distribution in plasma ([2]; 36 h pooled plasma) | % Distribution in plasma ([2]; 48 h pooled plasma) | % Distribution in plasma ([2]; 72 h pooled plasma) | % Distribution in plasma ([2]; 96 h pooled plasma) | further results
4 | P, U, F | ~0.5–1.0% | ~0.5–1.0% | ~0.5–1.0% | ~0.5–1.0% | Cc1ccc(C(=O)Nc2ccc(CN3CCNCC3)c(C(F)(F)F)c2)cc1C#Cc1cnc2cccnn12 [M42, 3-(imidazo[1,2-b]pyridazin-3-ylethynyl)-4-methyl-N-(4-(piperazin-1-ylmethyl)-3-(trifluoromethyl)phenyl)benzamide] | – (“–” values less than 0.5% are not reported) | – (“–” values less than 0.5% are not reported) | – (“–” values less than 0.5% are not reported) | – (“–” values less than 0.5% are not reported) | plasma level at 144 h postdose ([3]; human plasma, 144 h postdose): at or below detectable limits; time postdose at which C max / maximal levels in plasma were observed ([3]; human plasma, single oral 45-mg dose, M23 by radiochromatography): 2 to 12 h; concentration at 144 h ([3]; male, human, plasma, oral, 45 mg): < 0.2 nM; AUC(0-inf) ([3]; male, human, plasma, po, 45 mg): 1.8 µM·h; AUC(0-t) ([3]; male, human, plasma, po, 45 mg): 1.61 µM·h; Cmax ([3]; male, human, plasma, po, 45 mg): 107 nM; Tmax ([3]; male, human, plasma, po, 45 mg): 2 h; half-life ([3]; male, human, plasma, po, 45 mg): 56 h; % of total radioactive dose [4]: 8.3%; % Distribution in matrix ([4]; % of fecal TRA): 9.6%
5 | P, U, F | ~0.5–1.0% | ~0.5% | ~0.5–1.0% | ~0.5–1.0% | Cc1ccc(C(=O)Nc2ccc(CN3CC[N+](C)([O-])CC3)c(C(F)(F)F)c2)cc1C#Cc1cnc2cccnn12 [M36, 4-(4-(3-(imidazo[1,2-b]pyridazin-3-ylethynyl)-4-methylbenzamido)-2-(trifluoromethyl)benzyl)-1-methylpiperazine 1-oxide] | – (“–” values less than 0.5% are not reported) | – (“–” values less than 0.5% are not reported) | – (“–” values less than 0.5% are not reported) | – (“–” values less than 0.5% are not reported) | 
